The source of these data is US20170283834A1, “Processes for Producing A Fermentation Product Using A Fermenting Organism” (Novozymes A/S, priority 2014, published 2017).

Residue numbers refer to the chain shown, from its start. Names and notes keep the numbering of the source. Values joined by “and” are separate entries in the source; they are usually repeats but may differ in a detail not shown here. Equal entries are not always repeated.

Data set [1] relates to Ethanol Red™. As to the kind of experiment: Addition of benzoate, propionate and formate to ethanol fermentations (SSF of corn mash). The format is cell-based, Saccharomyces cerevisiae. The conditions noted are these: for Glycerol pH 3.8 (w/v %) / Glycerol pH 5 (w/v %) / ETOH pH 3.8 (w/v %) / ETOH pH 5 (w/v %) / % Boost over no added acid: 54 hours; for % Boost over no added acid: ethanol; for % Change from no added acid: glycerol. The method, then:
Industrially prepared corn mash was obtained from Lincolnland (Liquozyme™ SODS liquefaction).
After 15 minutes, the flasks were swirled, but no other agitation took place.
The pH after liquefaction was 4.9 and was adjusted to various pHs for SSF. […] Glucoamylase SA (“GSA”)/Cellulase VD (“CVD”) enzyme blend was dosed to each tube of mash at 110 μg EP GSA/gDS and 30 μg EP CVD/gDS. […] Benzoic acid was added in the range of 0-0.8 mM. Propionic and Formic acid were added in the range of 0-30 mM. All acid additions were done prior to inoculation (i.e., before exponential growth).
Each tube was processed for HPLC analysis by deactivation with 150 μL of 40% v/v H2SO4, vortexing, centrifuging at 1460×g for 10 minutes, and filtering through a 0.45 μm Whatman PP filter. All samples were processed without further dilution.

Data set [2] has as its system zein. As to the kind of experiment: Relative activity assay of protease variants (zein micro titer plate). It counts as biochemical. The essentials:
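Relative activity is the ratio of zein clearance (A630 turbidity) at a higher versus lower temperature, e.g. 60/65 °C or 70/80 °C. Supernatants from 3-day yeast cultures applied to 0.05-0.1% zein agar in 20 mM sodium acetate pH 4.5 with zinc, incubated at least 4 h.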

The mark [3] stands for this setting: acid Concentration 0.2 (mM), pH 3.8.
[4] abbreviates: acid Concentration 0.2 (mM), pH 5.
Setting [5] is: acid Concentration 0.5 (mM), pH 3.8.
[6] abbreviates: acid Concentration 0.5 (mM), pH 5.
[7] abbreviates: acid Concentration 0.8 (mM), pH 3.8.
Setting [8] is: acid Concentration 0.8 (mM), pH 5.
Where [9] appears, read: acid Concentration 10 (mM), pH 3.8.
Where [10] appears, read: acid Concentration 10 (mM), pH 5.
Where [11] appears, read: acid Concentration 20 (mM), pH 3.8.
The mark [12] stands for this setting: acid Concentration 20 (mM), pH 5.
[13] abbreviates: acid Concentration 30 (mM), pH 3.8.
Setting [14] is: acid Concentration 30 (mM), pH 5.

As for `O=C(O)c1ccccc1` [Benzoic Acid, benzoic acid], the “effect of acid addition on fermentation performance” value in data set [1] is on record as “increases fermentation performance”. Further, the “Glycerol pH 3.8 (w/v %)” value was 1.159 w/v % in data set [1] (Concentration 0.2 mM, pH 3.8); 1.091 w/v % in data set [1] (Concentration 0.5 mM, pH 3.8); 1.041 w/v % in data set [1] (Concentration 0.8 mM, pH 3.8). In addition, the “Glycerol pH 5 (w/v %)” value in data set [1] (Concentration 0.2 mM, pH 5) is given as 1.160 w/v %; in data set [1] (Concentration 0.5 mM, pH 5), 1.127 w/v %; in data set [1] (Concentration 0.8 mM, pH 5) it was 1.093 w/v %. Further, the entries for the “ETOH pH 3.8 (w/v %)” value in data set [1] (setting [3]), in data set [1] (setting [5]) and in data set [1] (setting [7]) were 13.73 w/v %, 13.6785 w/v % and 13.35 w/v %, respectively. Besides, the results for the “ETOH pH 5 (w/v %)” value in data set [1] (setting [4]), in data set [1] (setting [6]) and in data set [1] (setting [8]) were 13.01 w/v %, 13.23 w/v % and 13.39 w/v %, respectively. The “% Boost over no added acid” value was 2.70% in data set [1] (setting [3]); 0.27% in data set [1] (setting [4]); 2.33% in data set [1] (setting [5]); 1.96% in data set [1] (setting [6]); −0.12% in data set [1] (setting [7]); 3.20% in data set [1] (setting [8]). The “% Change from no added acid” value in data set [1] (Concentration 0.2 mM, pH 3.8) is reported as −11.47%; in data set [1] (Concentration 0.2 mM, pH 5), −13.60%; in data set [1] (Concentration 0.5 mM, pH 3.8) it was −16.65%; in data set [1] (Concentration 0.5 mM, pH 5) it was −16.08%; in data set [1] (Concentration 0.8 mM, pH 3.8), −20.45%; in data set [1] (Concentration 0.8 mM, pH 5) it was −18.58%.
In the case of `O=CO` [Formic Acid, formic acid], in data set [1], the “effect of acid addition on fermentation performance” value was “boost”. The “Glycerol pH 3.8 (w/v %)” value in data set [1] (Concentration 10 mM, pH 3.8) worked out at 1.078 w/v %; in data set [1] (Concentration 20 mM, pH 3.8), 1.070 w/v %; in data set [1] (Concentration 30 mM, pH 3.8), 0.966 w/v %. For the same molecule, the “Glycerol pH 5 (w/v %)” value in data set [1] (Concentration 10 mM, pH 5) was 1.175 w/v %; in data set [1] (Concentration 20 mM, pH 5), 1.117 w/v %; in data set [1] (Concentration 30 mM, pH 5), 1.111 w/v %. In addition, the “ETOH pH 3.8 (w/v %)” value in data set [1] (setting [9]) is 13.69 w/v %; in data set [1] (setting [11]), 13.41 w/v %; in data set [1] (setting [13]), 6.458 w/v %. Also, the “ETOH pH 5 (w/v %)” value in data set [1] (setting [10]) was 13.1 w/v %; in data set [1] (setting [12]) it was 13.22 w/v %; in data set [1] (setting [14]) it was 13.2 w/v %. Also, the “% Boost over no added acid” value in data set [1] (setting [9]) was 2.45%; in data set [1] (setting [10]) it was 0.94%; in data set [1] (setting [11]), 0.31%; in data set [1] (setting [12]) it was 1.84%; in data set [1] (setting [13]), −51.69%; in data set [1] (setting [14]), 1.70%. In addition, the “% Change from no added acid” value is recorded as −17.68% in data set [1] (Concentration 10 mM, pH 3.8); −12.49% in data set [1] (Concentration 10 mM, pH 5); −18.24% in data set [1] (Concentration 20 mM, pH 3.8); −16.81% in data set [1] (Concentration 20 mM, pH 5); −26.19% in data set [1] (Concentration 30 mM, pH 3.8); −17.26% in data set [1] (Concentration 30 mM, pH 5).
Regarding `CCC(=O)O` [Propionic Acid, propionic acid], the “Glycerol pH 3.8 (w/v %)” value worked out at 0.985 w/v % in data set [1] (Concentration 10 mM, pH 3.8); 0.896 w/v % in data set [1] (Concentration 20 mM, pH 3.8); 0.654 w/v % in data set [1] (Concentration 30 mM, pH 3.8). Also, the “Glycerol pH 5 (w/v %)” value is 1.017 w/v % in data set [1] (Concentration 10 mM, pH 5); 0.927 w/v % in data set [1] (Concentration 20 mM, pH 5); 0.874 w/v % in data set [1] (Concentration 30 mM, pH 5). The “ETOH pH 3.8 (w/v %)” value worked out at 13.2 w/v % in data set [1] (setting [9]), 11.67 w/v % in data set [1] (setting [11]) and 3.064 w/v % in data set [1] (setting [13]). In addition, the “ETOH pH 5 (w/v %)” value in data set [1] (setting [10]) is listed as 13.26 w/v %; in data set [1] (setting [12]) it was 12.87 w/v %; in data set [1] (setting [14]), 11.8064 w/v %. For the same molecule, the “% Boost over no added acid” value in data set [1] (setting [9]) is −1.27%; in data set [1] (setting [10]) it was 2.2% and 2.21%; in data set [1] (setting [11]) it was −12.7%; in data set [1] (setting [12]), −0.84%; in data set [1] (setting [13]) it was −77.08%; in data set [1] (setting [14]) it was −9.03%. Also, the “% Change from no added acid” value in data set [1] (Concentration 10 mM, pH 3.8) is on record as −24.78%; in data set [1] (Concentration 10 mM, pH 5), −24.26%; in data set [1] (Concentration 20 mM, pH 3.8), −31.55%; in data set [1] (Concentration 20 mM, pH 5), −30.95%; in data set [1] (Concentration 30 mM, pH 3.8), −50.02%; in data set [1] (Concentration 30 mM, pH 5) it was −34.94%. Moreover, the “effect on ethanol production at pH 3.8” value in data set [1] (pH 3.8) was “negative effect”.

B1: JTP211: protease variant of SEQ ID NO: 3: A27K D79L Y82F D104P A112P A126V D142L (protein, listed as Thermoascus aurantiacus)
chain: MRLVASLTALVALSVPVFPAAVNVKRASSYLEITLSQVSNTLIKAVVQNTGSDELSFVHLNFFKDPAPVKKVSVYRDGSEVQFEGILSRYKSTGLSRDAFTYLAPGESVEDVFDIASTYDLTSGGPVTIRTEGVVPYATANSTDIAGYISYSSNVLTIDVDGAAAATVSKAITPLDRRTRISSCSGSRQSALTTALRNAASLANKAADAAQSGSASKFSEYFKTTSSSTRQTVAARLRAVAREASSSSSGATTYYCLDPFGYCSSNVLAYTLPSYNIIANCPIFYTYLPPLTSTCHAQDQATTVLHEFTHAPGVYSPGTLDLAYGYQAAMGLSSSQAVMNADTYALYANAIYLGC
As to B1, in data set [2] (Table 5, lower part), the “Relative activity 75° C./70° C.” value worked out at 94% and the “Relative activity 80° C./70° C.” value worked out at 44%.

B2: JTP213: protease variant of SEQ ID NO: 3: A27K Y82F D104P A112P A126V D142L (protein, listed as Thermoascus aurantiacus)
chain: B1 chain with L257D
As to B2, in data set [2] (Table 5, lower part), the “Relative activity 75° C./70° C.” value amounted to 103% and the “Relative activity 80° C./70° C.” value is given as 37%.

B3: JTP134: protease variant of SEQ ID NO: 3: D79L Y82F S87P A112P D142L (protein, listed as Thermoascus aurantiacus)
chain: B1 chain with K205A, S265P, P282D, V304A
Regarding B3, the “Relative activity 80° C./70° C.” value in data set [2] (Table 5, upper part) worked out at 40%.
